Test results: patent US5385917A, “Carboxylic acid derivatives” (Mitsubishi Kasei Corporation, priority 1992, dated 1995)
pIC50: −log10 of the molar value.

Each compound was assayed against T1, Human steroid 5α-reductase (Homo sapiens, UniProt P31213) (assay: Human steroid 5α-reductase inhibiting effect using human prostatic tissue). Conditions: human prostate homogenate, pH 5.5, 50 nM [3H]testosterone, NADPH, 37° C., 10 min; Table 5.
T1 construct: The suspension was used as the source of 5α-reductase; from tissue; host or cells: frozen human prostate, whole homogenate in 0.1 M phosphate buffer pH 5.5
T1 sequence (P31213 1-254): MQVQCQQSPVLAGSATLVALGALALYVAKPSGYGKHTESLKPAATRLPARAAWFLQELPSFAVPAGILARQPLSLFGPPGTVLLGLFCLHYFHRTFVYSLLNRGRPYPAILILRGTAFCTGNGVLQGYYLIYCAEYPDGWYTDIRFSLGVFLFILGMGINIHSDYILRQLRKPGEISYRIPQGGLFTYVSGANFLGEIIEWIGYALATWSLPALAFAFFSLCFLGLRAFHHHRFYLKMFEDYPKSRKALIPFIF
Format: biochemical
Text: Human steroid 5α-reductase inhibiting effect was examined on the compounds of the present invention using human prostatic tissue.
Frozen human prostate was thawed on ice and minced into small pieces (~5mm^3). The minced tissue was homogenized with a Polytron homogenizer (Kinematica, Switzerland) in 40 vol. of 0.1M phosphate buffer at pH 5.5. The suspension was used as the source of 5α-reductase.
For this test, DMSO solutions containing various amount of the inhibitor were employed.
Each reaction solution was incubated at 37° C. for 10 minutes and ethyl acetate (2 ml) chilled with ice was added for stopping the reaction. The organic layer was transferred to another test tube and evaporated to dryness under nitrogen. Each 50 μg of non radioactive testosterone, DHT, estradiol, androstenedione and androstandiol was added to the residue, and the wall of each test tube was washed with ethyl acetate (0.1 ml). The content of the tube was evaporated again and the residue was dissolved in chloroform (50 μl) and then applied to Whatman LK60DF silica plates (Whatman, N.J.), developing in chloroform:methanol (50:1). The bands of the substrates and products were identified by fluorescence (254 nm) and iodine, and the relevant silica gel was collected by scraping, mixed with toluene based liquid sincilator, and the radioactivity was counted. The radioactivities of DHT and androstandiol were combined for the calculation of 5α-reductase activity. […] The radioactivity for the control group was postulated as 100%.
IC50 were calculated from the data obtained from the above experiments.
Compound `CC12CCC(C(=O)O)=CC1=CCCC2NC(=O)c1ccc(Oc2ccccc2)cc1` (centres unmarked) [Example 1] has a pIC50 of 5.48.
For `CC12CCC(C(=O)O)=CC1=CCCC2NC(=O)c1cccc(Oc2ccccc2)c1` (centres unmarked) [Example 2, 5-(3'-phenoxybenzoylamino)-10-methyl-Δ^1(2),8(9) -octalin-2-carboxylic acid], the pIC50 was 6.08.
With `CC(C)c1ccc(Oc2cccc(C(=O)NC3CCC=C4C=C(C(=O)O)CCC43C)c2)cc1` (centres unmarked) [Example 4, 5-[3'-(p-isopropylphenoxy)benzoylamino]-10-methyl-Δ^1(2),8(9) -octalin-2-carboxylic acid] the pIC50 was 6.09.
In the case of `CC(C)c1cccc(Oc2cccc(C(=O)NC3CCC=C4C=C(C(=O)O)CCC43C)c2)c1` (centres unmarked) [Example 5, 5-[3'-(m-isopropylphenoxy)benzoylamino]-10-methyl-Δ^1(2),8(9) -octalin-2-carboxylic acid], the pIC50 was 6.34.
With `Cc1ccc(Oc2cccc(C(=O)NC3CCC=C4C=C(C(=O)O)CCC43C)c2)cc1` (centres unmarked) [Example 7, 5-[3'-(p-tolyloxy)benzoylamino]-10-methyl-Δ^1(2),8(9) -octalin-2-carboxylic acid] the pIC50 was 6.68.
`CC(C)Cc1ccc(Oc2cccc(C(=O)NC3CCC=C4C=C(C(=O)O)CCC43C)c2)cc1` (centres unmarked) [Example 9, 5-{3"-[p-(2'-methylpropyl]phenoxy)benzoylamino}-10-methyl-Δ^1(2),8(9) -octalin-2-carboxylic acid] showed a pIC50 of 6.28.
`CC12CCC(C(=O)O)=CC1=CCCC2NC(=O)c1cccc(Oc2ccc(C3CCCCC3)cc2)c1` (centres unmarked) [Example 11, 5-[3'-(p-cyclohexylphenoxy)benzoylamino]-10-methyl-Δ^1(2),8(9) -octalin-2-carboxylic acid] showed a pIC50 of 6.60.
Compound `Cc1cc(C)cc(Oc2cccc(C(=O)NC3CCC=C4C=C(C(=O)O)CCC43C)c2)c1` (centres unmarked) [Example 13, 5-[3'-(3,5-dimethylphenoxy)benzoylamino]-10-methyl-Δ^1(2),8(9) -octalin-2-carboxylic acid] has a pIC50 of 6.18.
For `CC12CCC(C(=O)O)=CC1=CCCC2NC(=O)c1cccc(Oc2ccc3c(c2)CCCC3)c1` (centres unmarked) [Example 14, 5-[3'-(5",6",7",8"-tetrahydro-2"-naphtoxy)benzoylamino]-10-methyl-Δ^1(2),8(9) -octalin-2-carboxylic acid], the pIC50 was 6.36.
`CC12CCC(C(=O)O)=CC1=CCCC2NC(=O)c1cccc(OCc2ccccc2)c1` (centres unmarked) [Example 15, 5-(3'-benzyloxy-benzoylamino)-10-methyl-Δ^1(2),8(9) -octalin-2-carboxylic acid] gave a pIC50 of 5.38.
`CC12CCC(C(=O)O)=CC1=CCCC2NC(=O)c1cccc(OC2CCCC2)c1` (centres unmarked) [Example 17, 5-(3'-cyclopentyloxybenzoylamino)-10-methyl-Δ^1(2),8(9) -octalin-2-carboxylic acid] gave a pIC50 of 6.74.
Compound `CC12CCC(C(=O)O)=CC1=CCCC2NC(=O)c1cccc(OC2CCCCCCC2)c1` (centres unmarked) [Example 20, 5-(3'-cyclooctyloxybenzoylamino)-10-methyl-Δ^1(2),8(9) -octalin-2-carboxylic acid] has a pIC50 of 6.57.
`CC(C)C1CCC(Oc2cccc(C(=O)NC3CCC=C4C=C(C(=O)O)CCC43C)c2)CC1` (centres unmarked) [Example 22, 5-[3-(4-isopropylcyclohexyloxy)benzoylamino]-10-methyl-Δ^1(2),8(9) -octalin-2-carboxylic acid] showed a pIC50 of 6.28.
For `CC12CCC(C(=O)O)=CC1=CCCC2NC(=O)c1cccc(O[C@H]2CC[C@H](C(C)(C)C)CC2)c1` (stereo partly drawn) [Example 23, 5-[3-(4-trans-t-butylcyclohexyloxy)benzoylamino]-10-methyl-Δ^1(2),8(9) -octalin-2-carboxylic acid], the pIC50 was 6.52.
`CC12CCC(C(=O)O)=CC1=CCCC2NC(=O)c1cccc(OCC2CCCCC2)c1` (centres unmarked) [Example 31, 5-(3'-cyclohexylmethoxybenzoylamino)-10-methyl-Δ^1(2),8(9) -octalin-2-carboxylic acid] was tested, and the pIC50 was 6.39.
`CC12CCC(C(=O)O)=CC1=CCCC2NC(=O)c1cccc(CC2CCCCC2)c1` (centres unmarked) [Example 35, 5-(3'-cyclohexylmethylbenzoylamino)-10-methyl-Δ^1(2),8(9) -octalin-2-carboxylic acid] was tested, and the pIC50 was 6.80.
`CC(C)c1ccc(Oc2cc(Br)cc(C(=O)NC3CCC=C4C=C(C(=O)O)CCC43C)c2)cc1` (centres unmarked) [Example 37, 5-[3-bromo-5-(p-isopropylphenoxy)benzoylamino]-10-methyl-Δ^1(2),8(9) -octalin-2-carboxylic acid] showed a pIC50 of 6.52.
For `COc1ccc(C(=O)NC2CCC=C3C=C(C(=O)O)CCC32C)cc1OC1CCCCCC1` (centres unmarked) [Example 39, 5-(3'-cycloheptyloxy-4'-methoxybenzoylamino)-10-methyl-Δ^1(2),8(9) -octalin-2-carboxylic acid], the pIC50 was 6.41.
With `CC12CCC(C(=O)O)=CC1=CCCC2NC(=O)c1ccc2c(c1)OC1(CCCCC1)O2` (centres unmarked) [Example 42, 5-(3',4'-cyclohexylidenedioxybenzoylamino)-10-methyl-Δ^1(2),8(9)-octalin-2-carboxylic acid] the pIC50 was 6.11.
`CC(C)(C)c1cc(C(=O)NC2CCC=C3C=C(C(=O)O)CCC32C)cc(C(C)(C)C)c1` (centres unmarked) [Example 43, 5-(3',5'-di-t-butylbenzoylamino)-10-methyl-Δ^1(2),8(9) -octalin-2-carboxylic acid] gave a pIC50 of 6.64.
For `C[C@@]12CCC(C(=O)O)=CC1=CCC[C@H]2NC(=O)c1cccc(OC2CCCCCC2)c1` [Example 45, (5R,10R)-5-(3'-cycloheptyloxybenzoylamino)-10-methyl-Δ^1(2),8(9)-octalin-2-carboxylic acid], the pIC50 was 6.21.
Compound `C[C@]12CCC(C(=O)O)=CC1=CCC[C@@H]2NC(=O)c1cccc(OC2CCCCCC2)c1` [Example 46, (5S,10S)-5-(3'-cycloheptyloxybenzoylamino)-10-methyl-Δ^1(2),8(9)-octalin-2-carboxylic acid] has a pIC50 of 6.52.
Work on `C[C@]12CCC(C(=O)O)=CC1=CCC[C@@H]2NC(=O)c1cccc(OC(C2CC2)C2CC2)c1` [Example 47, (5S,10S)-5-(3'-dicyclopropylmethoxybenzoylamino)-10-methyl-Δ^1(2),8(9) -octalin-2-carboxylic acid] yielded a pIC50 of 6.80.
Work on `CC(C)C(Oc1cccc(C(=O)N[C@H]2CCC=C3C=C(C(=O)O)CC[C@@]32C)c1)C(C)C` [Example 48, (5S,10S)-5-[3'-(2",4"-dimethyl-3"-pentyloxy)benzoylamino]-10-methyl-Δ^1(2),8(9) -octalin-2-carboxylic acid] yielded a pIC50 of 7.19.
Compound `Cc1c(OC2CCCCCC2)cccc1C(=O)NC1CCC=C2C=C(C(=O)O)CCC21C` (centres unmarked) [Example 51, 5-(3'-cycloheptyloxy-2-methylbenzoylamino)-10-methyl -Δ^1(2),8(9) -octalin-2-carboxylic acid] has a pIC50 of 6.04.
For `C[C@]12CCC(C(=O)O)=CC1=CC[C@@H]2NC(=O)c1cccc(OC(C2CC2)C2CC2)c1` [Example 54, (1S,8S)-1-[3'-(dicyclopropylmethyloxy)benzoylamino]-8a-methyl-1,2,6,7-tetrahydroindene-5-carboxylic acid], the pIC50 was 6.80.
